Measurements as given in PubChem BioAssay (NCI).
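A five-concentration, 48-hour dose response in 96-well plates underlies each endpoint, interpolated linearly between surrounding concentrations. TGI is the concentration that stops growth completely.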

Columns and labels:
Assay in all cases: NCI tumour cell line growth inhibition, 48 h
786-0 renal = system: 786-0 renal
A498 renal = system: A498 renal
ACHN renal = system: ACHN renal
BT-549 breast = system: BT-549 breast
CAKI-1 renal = system: CAKI-1 renal
CCRF-CEM leukemia = system: CCRF-CEM leukemia
COLO 205 colon = system: COLO 205 colon
DU-145 prostate = system: DU-145 prostate
EKVX NSCLC = system: EKVX NSCLC
HCC-2998 colon = system: HCC-2998 colon
HCT-116 colon = system: HCT-116 colon
HCT-15 colon = system: HCT-15 colon
HL-60(TB) leukemia = system: HL-60(TB) leukemia
HOP-62 NSCLC = system: HOP-62 NSCLC
HOP-92 NSCLC = system: HOP-92 NSCLC
HS 578T breast = system: HS 578T breast
HT29 colon = system: HT29 colon
IGROV1 ovarian = system: IGROV1 ovarian
K-562 leukemia = system: K-562 leukemia
KM12 colon = system: KM12 colon
LOX IMVI melanoma = system: LOX IMVI melanoma
M14 melanoma = system: M14 melanoma
MCF7 breast = system: MCF7 breast
MDA-MB-231 breast = system: MDA-MB-231 breast
MDA-MB-435 = system: MDA-MB-435
MDA-N = system: MDA-N
MOLT-4 leukemia = system: MOLT-4 leukemia
NCI-H226 lung = system: NCI-H226 lung
NCI-H23 lung = system: NCI-H23 lung
NCI-H460 lung = system: NCI-H460 lung
NCI/ADR-RES ovarian = system: NCI/ADR-RES ovarian
OVCAR-3 ovarian = system: OVCAR-3 ovarian
OVCAR-4 ovarian = system: OVCAR-4 ovarian
OVCAR-5 ovarian = system: OVCAR-5 ovarian
OVCAR-8 ovarian = system: OVCAR-8 ovarian
PC-3 prostate = system: PC-3 prostate
RPMI-8226 leukemia = system: RPMI-8226 leukemia
RXF 393 renal = system: RXF 393 renal
SF-268 CNS = system: SF-268 CNS
SF-295 CNS = system: SF-295 CNS
SF-539 CNS = system: SF-539 CNS
SK-MEL-2 melanoma = system: SK-MEL-2 melanoma
SK-MEL-28 melanoma = system: SK-MEL-28 melanoma
SK-MEL-5 melanoma = system: SK-MEL-5 melanoma
SK-OV-3 ovarian = system: SK-OV-3 ovarian
SN12C renal = system: SN12C renal
SNB-19 CNS = system: SNB-19 CNS
SNB-75 CNS = system: SNB-75 CNS
SW-620 colon = system: SW-620 colon
T-47D breast = system: T-47D breast
TK-10 renal = system: TK-10 renal
U251 CNS = system: U251 CNS
UACC-257 melanoma = system: UACC-257 melanoma
UACC-62 melanoma = system: UACC-62 melanoma
UO-31 renal = system: UO-31 renal
A549 NSCLC = system: A549 NSCLC
MALME-3M melanoma = system: MALME-3M melanoma
NCI-H522 lung = system: NCI-H522 lung

Oc1ccc2c(c1)OCC1c3ccccc3OC21 (stereo unspecified)
TGI (786-0 renal): > 100 µM
TGI (A498 renal): > 100 µM
TGI (ACHN renal): > 100 µM
TGI (BT-549 breast): > 100 µM
TGI (CAKI-1 renal): > 100 µM
TGI (CCRF-CEM leukemia): > 100 µM
TGI (COLO 205 colon): > 100 µM
TGI (DU-145 prostate): > 100 µM
TGI (EKVX NSCLC): 86.7 µM
TGI (HCC-2998 colon): > 100 µM
TGI (HCT-116 colon): > 100 µM
TGI (HCT-15 colon): > 100 µM
TGI (HL-60(TB) leukemia): 83.4 µM
TGI (HOP-62 NSCLC): > 100 µM
TGI (HOP-92 NSCLC): > 100 µM
TGI (HS 578T breast): > 100 µM
TGI (HT29 colon): > 100 µM
TGI (IGROV1 ovarian): > 100 µM
TGI (K-562 leukemia): > 100 µM
TGI (KM12 colon): > 100 µM
TGI (LOX IMVI melanoma): > 100 µM
TGI (M14 melanoma): > 100 µM
TGI (MCF7 breast): > 100 µM
TGI (MDA-MB-231 breast): > 100 µM
TGI (MDA-MB-435): > 100 µM
TGI (MDA-N): > 100 µM
TGI (MOLT-4 leukemia): 65.2 µM
TGI (NCI-H226 lung): > 100 µM
TGI (NCI-H23 lung): > 100 µM
TGI (NCI-H460 lung): > 100 µM
TGI (NCI/ADR-RES ovarian): > 100 µM
TGI (OVCAR-3 ovarian): > 100 µM
TGI (OVCAR-4 ovarian): > 100 µM
TGI (OVCAR-5 ovarian): > 100 µM
TGI (OVCAR-8 ovarian): > 100 µM
TGI (PC-3 prostate): > 100 µM
TGI (RPMI-8226 leukemia): > 100 µM
TGI (RXF 393 renal): > 100 µM
TGI (SF-268 CNS): > 100 µM
TGI (SF-295 CNS): > 100 µM
TGI (SF-539 CNS): > 100 µM
TGI (SK-MEL-2 melanoma): > 100 µM
TGI (SK-MEL-28 melanoma): > 100 µM
TGI (SK-MEL-5 melanoma): > 100 µM
TGI (SK-OV-3 ovarian): > 100 µM
TGI (SN12C renal): > 100 µM
TGI (SNB-19 CNS): > 100 µM
TGI (SNB-75 CNS): > 100 µM
TGI (SW-620 colon): > 100 µM
TGI (T-47D breast): > 100 µM
TGI (TK-10 renal): > 100 µM
TGI (U251 CNS): > 100 µM
TGI (UACC-257 melanoma): > 100 µM
TGI (UACC-62 melanoma): > 100 µM
TGI (UO-31 renal): > 100 µM

Nc1ncnc2nc(N3CCN(CCO)CC3)[nH]c12
TGI (786-0 renal): > 100 µM
TGI (A498 renal): > 100 µM
TGI (A549 NSCLC): > 100 µM
TGI (ACHN renal): > 100 µM
TGI (BT-549 breast): > 100 µM
TGI (CAKI-1 renal): > 100 µM
TGI (CCRF-CEM leukemia): > 100 µM
TGI (COLO 205 colon): > 100 µM
TGI (DU-145 prostate): > 100 µM
TGI (EKVX NSCLC): > 100 µM
TGI (HCC-2998 colon): > 100 µM
TGI (HCT-116 colon): > 100 µM
TGI (HCT-15 colon): > 100 µM
TGI (HL-60(TB) leukemia): > 100 µM
TGI (HOP-62 NSCLC): > 100 µM
TGI (HS 578T breast): > 100 µM
TGI (HT29 colon): > 100 µM
TGI (IGROV1 ovarian): > 100 µM
TGI (K-562 leukemia): > 100 µM
TGI (KM12 colon): > 100 µM
TGI (LOX IMVI melanoma): > 100 µM
TGI (M14 melanoma): > 100 µM
TGI (MALME-3M melanoma): > 100 µM
TGI (MCF7 breast): > 100 µM
TGI (MDA-MB-231 breast): > 100 µM
TGI (MDA-MB-435): > 100 µM
TGI (MDA-N): > 100 µM
TGI (MOLT-4 leukemia): > 100 µM
TGI (NCI-H226 lung): > 100 µM
TGI (NCI-H23 lung): > 100 µM
TGI (NCI-H460 lung): > 100 µM
TGI (NCI-H522 lung): > 100 µM
TGI (NCI/ADR-RES ovarian): > 100 µM
TGI (OVCAR-3 ovarian): > 100 µM
TGI (OVCAR-4 ovarian): > 100 µM
TGI (OVCAR-5 ovarian): > 100 µM
TGI (OVCAR-8 ovarian): > 100 µM
TGI (PC-3 prostate): > 100 µM
TGI (RPMI-8226 leukemia): > 100 µM
TGI (RXF 393 renal): > 100 µM
TGI (SF-268 CNS): > 100 µM
TGI (SF-295 CNS): > 100 µM
TGI (SF-539 CNS): > 100 µM
TGI (SK-MEL-2 melanoma): > 100 µM
TGI (SK-MEL-28 melanoma): > 100 µM
TGI (SK-MEL-5 melanoma): > 100 µM
TGI (SK-OV-3 ovarian): > 100 µM
TGI (SN12C renal): > 100 µM
TGI (SNB-19 CNS): > 100 µM
TGI (SW-620 colon): > 100 µM
TGI (T-47D breast): > 100 µM
TGI (TK-10 renal): > 100 µM
TGI (U251 CNS): > 100 µM
TGI (UACC-257 melanoma): > 100 µM
TGI (UACC-62 melanoma): > 100 µM
TGI (UO-31 renal): > 100 µM
